Experiment [1] concerns in vitro differentiated macrophages. As to the kind of experiment: Cell viability of in vitro differentiated macrophages (PI staining, flow cytometry). Format: cell-based, human. How it is done:
Apoptosis was detected by staining with AnnexinV and PI.
We next studied the effect of ecteinascidin 743 on already differentiated macrophages obtained from monocytes cultured in vitro for 5 days with M-CSF. […] Monocytes were differentiated to macrophages by culture with M-CSF (20 ng/ml). At day 3, ecteinascidin 743 was added to cultures and incubated for 48 h. […] Similar results were obtained in other 4 experiments. In a series of 4 different experiments, IC50 for in vitro differentiated was 10 nM.
We then tested the susceptibility to ecteinascidin 743 of macrophages classically activated by LPS and IFN gamma (or M1 macrophages) and alternatively activated by IL-4 (or M2 macrophages). In vitro differentiated macrophages were stimulated with LPS (100 ng/ml)+IFNgamma (500 UI:ml), Il-4 (20 ng/ml), in the presence or absence of ecteinascidin 743 for 48 h.

A further experiment relates to CCL2. The experiment in a line: CCL2 production by LPS-stimulated in vitro differentiated macrophages (ELISA). Format: cell-based. To be noted: Homo sapiens, Macrophage; 5 nM, LPS 100 ng/ml, 16 h, n=5. The procedure: (§1) Supernatants of untreated cells or cells treated with ecteinascidin 743 or other anti-neoplastic agents were collected after 24 h culture and frozen. Monocytes, macrophages and TAM were stimulated with 100 ng/ml LPS to induce maximal cytokine production. Determination of cytokines CCL2, TNF and IL-6 was measured by specific ELISA following the manufacturer's instructions.
(§2) Monocytes and in vitro differentiated macrophages were stimulated with LPS (100 ng/ml). After 1 h LPS stimulation they were treated with ecteinascidin 743. After 16 h incubation, cell supernatants were harvested and tested in ELISA. Under these treatment conditions cell viability was usually >85% for concentrations up to 5 nM. […] Mean inhibition at 5 nM, for monocytes, was 65% (range 50-80%, n=5) and was 50% (range 25-75%, n=5) for in vitro differentiated macrophages. Results are mean+/−SE of 3-5 experiments
For orientation: An ELISA detects its analyte on a solid surface through an enzyme-linked reagent.

In experiment [2] the test system is IL-6. As to the kind of experiment: IL-6 production by LPS-stimulated in vitro differentiated macrophages (ELISA). In kind it is cell-based. To be noted: Homo sapiens, Macrophage; 5 nM, n=2; read-out: overall inhibition of IL-6 production, macrophages. The procedure:
as §1, §2
We also tested two other cytokines, IL-6 and TNF, produced by macrophages and tumour cells, which have inflammatory properties and also act as growth factors for some tumours. IL-6 production was always reduced after ecteinascidin 743 treatment, with an overall inhibition at 5 nM of 54% (range 51-57%, n=2) and 69% (range 66-72%, n=2), in monocytes and macrophages, respectively (FIG. 6B). […]

Experiment [3] relates to IL-6. The experiment in a line: Constitutive IL-6 production by freshly isolated ovarian tumour cells (ELISA). In kind it is cell-based, human. To be noted: 16 h. The source says: Tumour-associated macrophages (TAM) and tumour cells were isolated from the ascitic fluid of patients with diagnosed ovarian adenocarcinoma, admitted to the Clinic of Obstetrics and Gynecology of the University of Milan-Bicocca, S Gerardo Hospital. Cells contained in the ascitic fluid were centrifuged and isolated by differential density gradients of Ficoll and Percoll, and plastic adherence as previously described (see Allavena, P., Peccatori, F., Maggioni, D., Erroi, A., Sironi, M., Colombo, N., Lissoni, A., Galazka, A., Meiers, W., Mangioni, C., et al. Intraperitoneal recombinant gamma-interferon in patients with recurrent ascitic ovarian carcinoma: modulation of cytotoxicity and cytokine production in tumour-associated effectors and of major histocompatibility antigen expression on tumour cells. Cancer Res, 50: 7318-7323, 1990). Purity of TAM and tumour cell preparations was usually>65±10% as defined by morphology and phenotype analysis. Cells were treated with ecteinascidin 743 at the indicated concentrations and cultured for 1-5 days, as specified in figure legends. […]
Monocytes, macrophages and TAM were stimulated with 100 ng/ml LPS to induce maximal cytokine production. Determination of cytokines CCL2, TNF and IL-6 was measured by specific ELISA following the manufacturer's instructions. […]

The structures appear in SMILES notation.

The IC50 is the concentration needed to halve the response being measured. A lower IC50 goes with higher potency. What is called inhibition is the drop in the measured response relative to a control, in per cent. As for `COc1cc2c(cc1O)CCN[C@]21CS[C@@H]2c3c(OC(C)=O)c(C)c4c(c3[C@H](COC1=O)N1[C@@H]2[C@H]2c3c(cc(C)c(OC)c3O)C[C@@H]([C@@H]1O)N2C)OCO4` [ecteinascidin 743], the IC50 in experiment [1] (Homo sapiens, Macrophage, drug added in the last 48 h, series of 4 experiments) is 10 nM. The “susceptibility of LPS-stimulated and IL-4-stimulated macrophages” value in experiment [1] (LPS 100 ng/ml + IFNgamma 500 UI/ml or IL-4 20 ng/ml, 48 h) is “susceptible to drug treatment similarly as non-stimulated macrophages”. For the same compound, the inhibition at 0.005 µM in the experiment on CCL2 was found to be 50%; in the experiment on IL-6 [2], 69%. In the experiment with IL-6 [3], the “constitutive production of IL-6 by freshly isolated tumour cells” value is “reduced”.

These data come from patent US20080076772A1, “Anti-Inflammatory Agents” (Pharma Mar S.A. Sociedad Unipersonal, priority 2004, published 2008).
